# Laboratory results: US20230159583A1, “COMPOUND FOR TREATING GOUT, PREPARATION METHOD THEREFOR, AND USE THEREOF” (Huazhong Pharmaceutical Co., Ltd., priority 2020, published 2023)
# Where two headings read alike, the source gives them in different places.
# Columns and labels:
# Type in all cases: in vivo
# [1] = system: rat paw swelling induced by monosodium urate (MSU); test: rat paw swelling model induced by monosodium urate (MSU)
# Excerpt: Gout is a disease unique to human, and gouty arthritis is an inflammatory reaction caused by the deposition of monosodium urate (MSU) in local joint tissues. Since purine metabolism pathways in some mammals such as mice and rabbits are different from those in humans, it is impossible to construct a gouty arthritis model by the method of interfering with purine metabolism disorders, so the most direct method for causing gouty arthritis is to directly inject MSU into the joint cavity of the model animal. The model is only used for simulating local joint inflammation of gout, is suitable for observation of local arthritis symptoms, is a common method for screening anti-inflammatory effects of gout drugs at present, and has the advantages of stability, easy operation and the like. (Reference: Li Na, Hua Long, and Yuan Hui. Research progress of gout animal models [J]. Medical theory and practice, 2016(24).
# The anti-gout effect of the compound prepared in the above Example was detected by using a rat paw swelling model induced by monosodium urate (MSU), and the control sample was methylprednisolone.
# Experimental method: MSU was used as an inflammatory agent, injected subcutaneously into the hind paws of rats to cause paw swelling, and then the volume of the paws was measured, and the swelling rates and swelling inhibition rates of the treatment group and the control group were compared. On the day of the experiment, the volume of right hind paw (ml) of each rat was measured firstly, and then after the onset of inflammation, the volume of right hind paw was measured so that the difference of volume of paw before and after inflammation was swelling degree, and the swelling inhibition rate of paw (swelling inhibition rate %=(C−T)/C*100%); C=swelling rate of the control group %, and T=swelling rate of the treatment group) was calculated. This method is one of the commonly used methods for screening anti-inflammatory effects of gout drugs, and the model is stable and easy to operate.
# (2) One week before the subcutaneous injection of MSU into the feet and soles of the rats, the rats were given different doses of the test drugs, and the drugs were given by gavage once a day, for seven consecutive days. The circumference of the right hind paw was marked and measured before the last administration, and the average value of the two measurements was taken as the standard. 1 h after the last administration, animals in other groups were given 50 μL of 2% MSU in addition to the blank control group, and the paw circumference was measured 1 h after the onset of inflammation. […]
# [2] = system: carrageenan-induced mouse paw swelling; test: carrageenan-induced mouse paw swelling model
# Experimental: The anti-inflammatory effects of the compounds prepared in the above Examples were detected using a carrageenan-induced mouse paw swelling model, and the control sample was methylprednisolone:
# Carrageenan-induced mouse paw swelling model is a classical acute inflammation model commonly used for evaluating or screening anti-inflammatory effects of drugs. When carrageenan is injected into the paw of mice, a series of reactions similar to human acute inflammation such as local capillary dilatation, increased vascular permeability, exudation and edema can be caused, so the model can be widely used in the evaluation of new drugs.
# Reference for experimental method: Yang Huan, Cheng Xiao, Wang Yuehua, Du Guanhua. Effects of esculin on the swelling of toes and inflammation induced by carrageenan in mice [J]. Chinese Journal of New Drugs, 2016(25):2322.
# On the day of the experiment, the circumference of right hind paw (cm) of each mouse was measured firstly, and then, after the onset of inflammation, the circumference of right hind paw was measured so that the difference of the circumferences of the paws before and after inflammation was swelling degree, and the swelling inhibition rate of paw (swelling inhibition rate %=(C−T)/C*100%); C=swelling rate of the control group %, and T=swelling rate of the treatment group) was calculated.
# (2) Gavage administration was performed once a day for seven consecutive days. The circumference of the right hind paw was marked and measured before the last administration, and the average value of the two measurements was taken as the standard. 30 min after the last administration, 20 μL/mice of 0.5% carrageenan was injected into the right hind ankle of the mice to induce inflammation, and the circumference of paw was measured 180 min after the onset of inflammation. […]
# ICR mice = conditions: p.o.
# Experimental: The experiment was designed according to the “Technical Guideline for Acute Toxicity Test of Chemical Drugs” issued by the State Food and Drug Administration in March 2005. The doses administered were 4 g/kg, 4.91 g/kg, 6.14 g/kg, 7.68 g/kg, 9.6 g/kg, 12 g/kg, and 15 g/kg (the dose could be adjusted according to the actual test results), 12 ICR mice per dose group. If the administration volume is greater than 0.5 ml, it is better to perform the drug administration in two or more times (Note: according to the national standard GB 15193.3-2014, if multiple drug administrations are required, the time interval should be 4 h to 6 h each time, and the patient should be fasted on the day before drug administration).
structure (smiles),measurement,setting,value
"CC1(C)O[C@@H]2C[C@H]3[C@@H]4C[C@H](F)C5=CC(=NO)C=C[C@]5(C)[C@@]4(F)[C@@H](O)C[C@]3(C)[C@]2(/C(CO)=N/O)O1 [Example 8, (2S,6aS,6bR,7S,8aS,8bR,11aR,12aS,12bS)-2,6b-difluoro-7-hydroxy-8b-((E)-2-hydroxy-1-(hydroxyimino)ethyl)-6a,8a,10,10-tetramethyl-1,2,6a,6b,7,8,8a,8b,11a,12,12a,12b-dodecahydro-4H-naphtho[2′,1′:4,5]indeno[1,2-d][1,3]dioxol-4-one oxime]",inhibition in vivo at 90 mg/kg,"[1]; Rattus norvegicus, po, 1 h, SD rats, 90 mg/kg by gavage once a day for seven days, 1 h after onset of inflammation, read-out: Swelling inhibition rate",91.8%
same,inhibition in vivo at 0.36 mg/kg,"[1]; Rattus norvegicus, po, 1 h, rat, MSU-induced paw swelling, dosage 0.36 mg/kg, read-out: Swelling inhibition rate",17.2%
same,inhibition in vivo at 1.8 mg/kg,"[1]; Rattus norvegicus, po, 1 h, rat, MSU-induced paw swelling, dosage 1.8 mg/kg, read-out: Swelling inhibition rate",32.1%
same,inhibition in vivo at 9 mg/kg,"[1]; Rattus norvegicus, po, 1 h, rat, MSU-induced paw swelling, dosage 9 mg/kg, read-out: Swelling inhibition rate",41.2%
same,inhibition in vivo at 90 mg/kg,"[1]; Rattus norvegicus, po, 1 h, rat, MSU-induced paw swelling, dosage 90 mg/kg, read-out: Swelling inhibition rate",93.5%
same,change in vivo at 90 mg/kg,"[1]; Rattus norvegicus, po, SD rats, 90 mg/kg by gavage once a day for seven days, 1 h after onset of inflammation, read-out: Swelling degree",26.8%
same,Swelling value,"[1]; SD rats, 90 mg/kg by gavage once a day for seven days, 1 h after onset of inflammation",0.33 mL
same,Mean volume of paw after administration,"[1]; SD rats, 90 mg/kg by gavage once a day for seven days, 1 h after onset of inflammation (50 μL 2% MSU)",1.56 mL
same,Swelling value,"[2]; ICR mice, 130 mg/kg by gavage once a day for seven days, 180 min after onset of inflammation",0.02 cm
same,Circumference of the paw after administration,"[2]; ICR mice, 130 mg/kg by gavage once a day for seven days, 180 min after onset of inflammation (0.5% carrageenan)",1.49 cm
same,inhibition in vivo at 0.26 mg/kg,"[2]; Mus musculus, po, 3 h, mouse, carrageenan-induced paw swelling, dosage 0.26 mg/kg, read-out: Swelling inhibition rate",24.5%
same,inhibition in vivo at 13 mg/kg,"[2]; Mus musculus, po, 3 h, mouse, carrageenan-induced paw swelling, dosage 13 mg/kg, read-out: Swelling inhibition rate",46.8%
same,inhibition in vivo at 130 mg/kg,"[2]; Mus musculus, po, 3 h, mouse, carrageenan-induced paw swelling, dosage 130 mg/kg, read-out: Swelling inhibition rate",93.2%
same,change in vivo at 130 mg/kg,"[2]; Mus musculus, po, 3 h, ICR mice, 130 mg/kg by gavage once a day for seven days, 180 min after onset of inflammation, read-out: Swelling degree",1.36%
same,inhibition in vivo at 130 mg/kg,"[2]; Mus musculus, po, 3 h, ICR mice, 130 mg/kg by gavage once a day for seven days, 180 min after onset of inflammation, read-out: Swelling inhibition rate",93%
same,Mortality,ICR mice; 4 g/kg,0/12
same,Mortality,ICR mice; 4.91 g/kg,0/12
same,Mortality,ICR mice; 6.14 g/kg,0/12
same,Mortality,ICR mice; 7.68 g/kg,0/12
same,Mortality,ICR mice; 9.6 g/kg,0/12
same,Mortality,ICR mice; 12 g/kg,0/12
same,Mortality,ICR mice; 15 g/kg,1/12
